The target of assay [1] is T1, androgen receptor (Homo sapiens, UniProt P10275).
T1 construct: expressed in transfected cells; host or cells: CV-1 (monkey kidney fibroblast) cells, plasmid pRShAR, with reporter plasmid MTV-LUC
T1 sequence (P10275 1-920): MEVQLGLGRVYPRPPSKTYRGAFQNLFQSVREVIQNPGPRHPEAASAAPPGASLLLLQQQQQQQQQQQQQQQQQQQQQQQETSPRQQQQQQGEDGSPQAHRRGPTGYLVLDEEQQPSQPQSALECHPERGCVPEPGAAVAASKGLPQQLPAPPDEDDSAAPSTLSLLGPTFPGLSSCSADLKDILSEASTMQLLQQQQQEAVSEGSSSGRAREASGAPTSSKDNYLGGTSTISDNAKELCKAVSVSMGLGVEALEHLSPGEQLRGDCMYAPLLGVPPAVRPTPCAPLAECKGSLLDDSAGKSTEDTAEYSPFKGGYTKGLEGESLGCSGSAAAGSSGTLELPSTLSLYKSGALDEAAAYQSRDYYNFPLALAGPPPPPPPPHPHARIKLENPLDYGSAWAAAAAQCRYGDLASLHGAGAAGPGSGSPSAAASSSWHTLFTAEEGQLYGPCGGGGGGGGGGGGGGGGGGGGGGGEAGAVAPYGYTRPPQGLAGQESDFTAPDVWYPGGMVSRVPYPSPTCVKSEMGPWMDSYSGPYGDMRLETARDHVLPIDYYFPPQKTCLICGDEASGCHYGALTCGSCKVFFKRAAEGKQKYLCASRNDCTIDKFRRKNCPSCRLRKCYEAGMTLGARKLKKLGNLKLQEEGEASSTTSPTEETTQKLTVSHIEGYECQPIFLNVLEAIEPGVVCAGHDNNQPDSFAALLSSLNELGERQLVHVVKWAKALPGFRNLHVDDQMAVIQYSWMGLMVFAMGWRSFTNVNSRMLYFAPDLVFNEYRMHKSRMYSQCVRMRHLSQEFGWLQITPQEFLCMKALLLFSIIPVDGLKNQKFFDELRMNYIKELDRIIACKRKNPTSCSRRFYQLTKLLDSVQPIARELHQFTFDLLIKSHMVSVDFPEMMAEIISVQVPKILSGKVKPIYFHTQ
Briefly: Co-transfection androgen antagonist assay (CV-1 cells, pRShAR, MTV-LUC reporter; AR-wt). The assay is classed as cell-based. To be noted: for pIC50: read-out: Potency (IC50, concentration required to reduce the maximal response by 50%). An excerpt:
The co-transfection assay provides a method for identifying functional ligands (either agonists which mimic, or antagonists which inhibit, the effect of hormones), and quantifying their activity for ligand-responsive receptor proteins. In this regard, the co-transfection assay mimics an in vivo system in the laboratory. Importantly, activity in the co-transfection assay correlates very well with known in vivo activity, such that the co-transfection assay functions as a quantitative predicator of a tested compounds in vivo pharmacology. See, e.g., T. Berger et al. 41 J. Steroid Biochem. Molec.
(§1) In the co-transfection assay, a cloned gene for an intracellular receptor (e.g., androgen receptor) is introduced by transfection (a procedure to induce cells to take up foreign genes) into a background cell substantially devoid of endogenous intracellular receptors. This introduced gene directs the recipient cells to make the intracellular receptor protein. A second gene is also introduced (co-transfected) into the same cells in conjunction with the intracellular receptor gene. This second gene functions as a reporter for the transcription-modulating activity of the target intracellular receptor. Thus, the reporter acts as a surrogate for the products normally expressed by a gene under control of the target receptor and its natural hormone. A preferred reporter gene is one which expresses the firefly enzyme luciferase.
(§2) The co-transfection assay can detect small molecule agonists or antagonists of target intracellular receptors. Exposing the cells to an agonist ligand increases reporter activity in the transfected cells. This activity can be conveniently measured, e.g., by increasing luciferase production, which reflects ligand-dependent, intracellular receptor-mediated increases in reporter transcription. To detect antagonists, the co-transfection assay is carried out in the presence of a constant concentration of an agonist (e.g., for androgen receptor, dihydrotestosterone) known to induce a defined reporter signal. Increasing concentrations of a test antagonist will decrease the reporter signal (e.g., luciferase production). The co-transfection assay is therefore useful to detect both agonists and antagonists of specific intracellular receptors. It determines not only whether a compound interacts with a particular intracellular receptor, but whether this interaction mimics (agonizes) or blocks (antagonizes) the effects of the natural regulatory molecules on target gene expression, as well as the specificity and strength of this interaction.
Co-transfected cells are exposed to a medium to which is added the potential ligand (compound) that is being evaluated. If the candidate compound diffuses into the cell, binds to the receptor, and the resulting receptor complex functions as an agonist, it will subsequently bind to the co-transfected reporter gene and initiate transcription. Typically, the reporter gene is one that expresses luciferase, which is capable of catalyzing a light-emitting reaction with its substrate luciferin. Thus, after cell lysis and the introduction of luciferin, the amount of light produced relative to the concentration of candidate compound used in the assay provides a measure of the potency and efficacy of the compound tested. Antagonist activity is evaluated by adding the candidate ligand and a known agonist to the co-transfected cells. […]

Assay [2] concerns progesterone receptor (PR-TI). Briefly: Antagonist activity on progesterone receptor, CV-1 cells cotransfected with pRShPR-B altered at Tau-1 (PR-TI). Format: cell-based, human. To be noted: Table 2, CV-1 cells PR-TI; for Efficacy, PR-TI (% maximal response): comparable to that found with RU-486; for pIC50: read-out: Potency, PR-TI (IC50).
Text: as §1, §2
Co-transfected cells are exposed to a medium to which is added the potential ligand (compound) that is being evaluated. If the candidate compound diffuses into the cell, binds to the receptor, and the resulting receptor complex functions as an agonist, it will subsequently bind to the co-transfected reporter gene and initiate transcription. Typically, the reporter gene is one that expresses luciferase, which is capable of catalyzing a light-emitting reaction with its substrate luciferin. Thus, after cell lysis and the introduction of luciferin, the amount of light produced relative to the concentration of candidate compound used in the assay provides a measure of the potency and efficacy of the compound tested. Antagonist activity is evaluated by adding the candidate ligand and a known agonist to the co-transfected cells.
The specific activity of Compounds A-J was compared relative to their antagonist activity on the human progesterone receptor (PR) utilizing CV-1 cells cotransfected with plasmid pRShPR-B, as altered at the Tau-1 location (e.g., PR-TI)[specifically, hPR-B was excised from the vector pGEM3Z (69 Cell 703 (1992)); the Tau-1 fragment of the gluccocorticoid receptor was inserted into hPR-B at the unique HincII site in the N-terminal region; a Bst EII to BST bI fragment spanning the Tau-1 insertion was then used to replace the corresponding region in pRShPR-B]. […] Potency or IC50 is as reported for AR-wt transfected CV-1 cells.

Setting [3] is: CV-1, Table 1, androgen antagonists, relative to 2-Hydroxy-flutamide, read-out: Efficacy (% maximal response relative to 2-Hydroxy-flutamide).
Setting [4] is: Table 2, CV-1 cells AR-wt, read-out: Efficacy, AR-wt.

SMILES strings stand for the structures. pIC50: −log10 of the molar value. Read-outs that look alike come from different tables or passages of the source.

Regarding `C=C1C=CCC(C)(C)C1Cc1ccccc1O` (stereo not drawn) [C, 1-Methylidene-6-(2'-hydroxyphenyl)methyl-5,5-dimethylcyclohex-2-ene], the Emax in assay [1] (setting [3]) and in assay [1] (setting [4]) was 82% in each case. In addition, the pIC50 in assay [1] (Table 1, androgen antagonists) was 6.68; in assay [2] it was under 5.00. For the same compound, the “Efficacy, PR-TI (% maximal response)” value in assay [2] turned out to be 20%.

Take `C=C1[C@@H](Cc2cc(OC)c(Br)cc2O)C(C)(C)CC[C@@H]1O` [B, (1S,3S)-1-Hydroxy-2-methylidene-3-(2'-hydroxy-4'-bromo-5'-methoxyphenyl)methyl-4,4-dimethylcyclohexane]: the Emax in assay [1] (setting [3]) and in assay [1] (setting [4]) was 85% in each case. Moreover, the pIC50 in assay [1] (Table 1, androgen antagonists) was 6.74; in assay [2] it was 6.06. Moreover, the “Efficacy, PR-TI (% maximal response)” value in assay [2] is listed as 98%.

For `O=[N+]([O-])c1ccc(C[C@@H]2CCCC[C@H]2O)cc1` (relative stereo) [I, trans-2-(4'-Nitrophenyl)methylcyclohexan-1-ol], the Emax in assay [1] (setting [3]) and in assay [1] (setting [4]) was 85% throughout. Also, the pIC50 in assay [1] (Table 1, androgen antagonists) is 6.54; in assay [2], 6.44. Moreover, the “Efficacy, PR-TI (% maximal response)” value in assay [2] is recorded as 99%.

For `C=C1[C@@H](Cc2cc(OC)c(Br)cc2O)C(C)(C)CC[C@@]1(C)O` [P, (1R,3S)-1-Hydroxy-2-methylidene-3-(2'-hydroxy-4'-bromo-5'-methoxyphenyl)methyl-1,4,4-trimethylcyclohexane], the Emax in assay [1] (setting [3]) was 88%. Besides, the pIC50 in assay [1] (Table 1, androgen antagonists) was 6.38.

Consider `COc1cc(CC2CCCCC2=O)c(O)cc1Br` (stereo not drawn) [Y, 2-(2'-hydroxy-4'-bromo-5 '-methoxyphenyl)methylcyclohex-1-one], for which the Emax in assay [1] (setting [3]) is 67%. The pIC50 in assay [1] (Table 1, androgen antagonists) is 6.47.

In the case of `C=C1[C@H](O)CCC(C)(C)[C@H]1Cc1cc(OC)c(Br)cc1O` [R, (1R,3R)-1-Hydroxy-2-methylidene-3-(2'-hydroxy-4'-bromo-5'-methoxyphenyl)methyl-4,4-dimethylcyclohexane], in assay [1] (setting [3]), the Emax stood at 70%. The pIC50 in assay [1] (Table 1, androgen antagonists) was 6.30.

As to `C=C1CCCC(C)(C)C1Cc1ccccc1O` (stereo not drawn) [D], the Emax in assay [1] (setting [3]) and in assay [1] (setting [4]) was 92% in each case. Besides, the pIC50 in assay [1] (Table 1, androgen antagonists) is 6.66; in assay [2], 5.46. Further, the “Efficacy, PR-TI (% maximal response)” value in assay [2] came out at 73%.

With `O=C1CCCCC1Cc1ccc([N+](=O)[O-])cc1` (stereo not drawn) [G, 2-(4'-Nitrophenyl)methylcyclohexan-1-one], the Emax in assay [1] (setting [3]) and in assay [1] (setting [4]) was 79% in each case. Moreover, the pIC50 was 6.60 in assay [1] (Table 1, androgen antagonists) and 6.04 in assay [2]. Also, the “Efficacy, PR-TI (% maximal response)” value in assay [2] was 98%.

Turning to `COc1cc(C[C@@H]2CCCC[C@@]2(C)O)c(O)cc1Br` (relative stereo) [Q, trans-1-Methyl-2-(2'-hydroxy-4'-bromo-5'-methoxyphenyl)methylcyclohexan-1-ol], the Emax in assay [1] (setting [3]) stood at 94%. In addition, the pIC50 in assay [1] (Table 1, androgen antagonists) was 6.34.

As for `C=C1C=CCC(C)(C)C1Cc1ccc([N+](=O)[O-])c(C)c1` (stereo not drawn) [T, 1-Methylidene-6-(3'-methyl-4'-nitrophenyl)methyl-5,5-dimethylcyclohex-2-ene], in assay [1] (setting [3]), the Emax is 88%. In assay [1] (Table 1, androgen antagonists), the pIC50 is 6.26.

Turning to `COc1cc(CC2C(C)(C)CC(C)=CC23CC3)c(OC(C)=O)cc1Br` (stereo not drawn) [H, 8-(2'-Acetoxy-4'-bromo-5 '-methoxyphenyl)methyl-5,7,7-trimethylspiro[2.51]oct-4-ene], the Emax in assay [1] (setting [3]) and in assay [1] (setting [4]) was 89% throughout. In addition, the pIC50 in assay [1] (Table 1, androgen antagonists) is 6.60; in assay [2], 6.80. Moreover, in assay [2], the “Efficacy, PR-TI (% maximal response)” value came to 26%.

`C=C1CCC(C)(C)C1Cc1cc(OC)c(Br)cc1O` (stereo not drawn) [K, 1-Methylidene-2-(2'-hydroxy-4'-bromo-5'methoxyphenyl)methyl-3,3-dimethylcyclo-pentane]: in assay [1] (setting [3]), the Emax turned out to be 91%. Besides, in assay [1] (Table 1, androgen antagonists), the pIC50 is 6.48.

Turning to `C=C1C=C(C)C[C@@H](C)[C@@H]1Cc1cc(OC)c(Br)cc1OC(C)=O` [O, (5R,6S)-1-Methylidene-6-(2'-acetoxy-4'-bromo-5 '-methoxyphenyl)methyl-3,5-dimethyl-cyclohex-2-ene], the Emax in assay [1] (setting [3]) was 78%. For the same compound, the pIC50 in assay [1] (Table 1, androgen antagonists) is 6.41.

For the compound `CC1(C)CCCC(=O)C1Cc1ccc([N+](=O)[O-])cc1` (stereo not drawn) [V, 2-(4'-Nitrophenyl)methyl-3.3-dimethylcyclohexan-1-one], in assay [1] (setting [3]), the Emax was 85%. In assay [1] (Table 1, androgen antagonists), the pIC50 was 6.23.

As for `C=C1C=CCC(C)(C)C1Cc1cc(OC)c(Br)cc1O` (stereo not drawn) [W, 1-Methylidene-6-(2'-hydroxy-4'-bromo-5'-methoxyphenyl)methyl-5,5-dimethylcyclo-hex-2-ene], in assay [1] (setting [3]), the Emax turned out to be 89%. Further, the pIC50 in assay [1] (Table 1, androgen antagonists) is 6.21.

With `C=C1C=CC[C@@H](C)[C@@H]1Cc1cc(OC)c(Br)cc1OC(C)=O` [L, (5R,6S)-1-Methylidene-6-(2'-acetoxy-4'-bromo-5'-methoxyphenyl)methyl-5-methylcyclohex-2-ene], in assay [1] (setting [3]), the Emax is 88%. In addition, the pIC50 in assay [1] (Table 1, androgen antagonists) was 6.43.

On to `C=C1C[C@H](C)CC(C)(C)[C@@H]1Cc1cc(OC)c(Br)cc1O` (relative stereo) [S, cis-1Methylidene-2-(2'-hydroxy-4'-bromo-5'-methoxyphenyl)methyl-3,3,5-trimethyl-cyclohexane], for which the Emax in assay [1] (setting [3]) came out at 92%. The pIC50 in assay [1] (Table 1, androgen antagonists) is 6.30.

As for `C=C1C=C(C)CC(C)(C)C1Cc1ccc([N+](=O)[O-])c(C)c1` (stereo not drawn) [U, 1-Methylidene-6-(3'-methyl-4'-nitrophenyl)methyl-3,5,5-trimethylcyclohex-2-ene], the Emax in assay [1] (setting [3]) came out at 69%. The pIC50 in assay [1] (Table 1, androgen antagonists) is 6.25.

For the origin of these results see patent US5677336A, “Non-steroid androgen receptor antagonist compounds and methods” (Ligand Pharmaceuticals Incorporated, priority 1993, dated 1997).
